# Measurements: patent publication US9394260B2, “Pyrimidinone carboxamide inhibitors of endothelial lipase” (BRISTOL-MYERS SQUIBB COMPANY, priority 2012, dated 2016)
# Molecular target: T1, endothelial lipase (EL) (Homo sapiens, UniProt Q9Y5X9)
# T1 construct: transformed by RAGE technology (Athersys) to overexpress endogenous EL; endogenous in cells; conditioned medium used as the enzyme source
# T1 sequence (Q9Y5X9 21-500): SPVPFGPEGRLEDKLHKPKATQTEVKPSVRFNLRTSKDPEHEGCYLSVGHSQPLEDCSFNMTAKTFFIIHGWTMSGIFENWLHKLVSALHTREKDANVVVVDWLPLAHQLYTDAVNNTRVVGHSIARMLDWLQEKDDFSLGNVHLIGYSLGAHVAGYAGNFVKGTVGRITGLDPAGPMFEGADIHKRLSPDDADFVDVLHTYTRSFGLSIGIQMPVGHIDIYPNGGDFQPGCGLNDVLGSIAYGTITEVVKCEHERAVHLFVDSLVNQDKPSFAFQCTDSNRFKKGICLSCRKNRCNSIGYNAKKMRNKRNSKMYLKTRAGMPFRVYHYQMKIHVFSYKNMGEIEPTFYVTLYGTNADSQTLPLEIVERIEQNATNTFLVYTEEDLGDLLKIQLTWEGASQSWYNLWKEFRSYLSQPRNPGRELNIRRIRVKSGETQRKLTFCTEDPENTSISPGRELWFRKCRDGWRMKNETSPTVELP
# Assay: Endothelial lipase (EL) enzymatic assay with fluorescent substrate A10070 in DMPG vesicles
# Format: biochemical
# Conditions: conditioned media from HT-1080 cells overexpressing endogenous EL, 20 min preincubation at 37° C.
# Description: Endothelial lipase activity was measured using a fluorescent substrate, A10070, (Invitrogen, CA) doped into an artificial vesicle containing DMPG (Avanti Polar Lipids) as the excipient. Vesicles were prepared by combining 285 μL of 1 mM DMPG in a 1:1 mixture of MeOH and CHCl3 with 15 μL of 1 mM A10070 in a 1:1 mixture of MeOH and CHCl3. The mixture was dried under nitrogen and resuspended in 150 μL of 50 mM HEPES pH 8.0 buffer containing 100 mM NaCl and 0.2 mM EDTA. The sample was allowed to sit at rt for 15 min and then was sonicated 3×4 mins on ice with a Branson Sonicator using duty cycle 1. This preparation provides vesicles with a mole fraction of 0.05 for the FRET substrate.
# The enzymatic assay was measured using white, opaque 96-well half area plates. Each well contained 60 μL of assay buffer (50 mM HEPES pH 8.0, 50 mM NaCl and 1 mM CaCl2) and 2 ul of a DMSO solution containing compound of interest. Conditioned media obtained from HT-1080 cells, which were transformed by RAGE technology (Athersys) to overexpress endogenous EL, was added and the reaction was allowed to incubate for 20 min at 37° C. with gentle agitation. The reaction was started by the addition of 20 μL of a 1:4 dilution of vesicles. The final total reaction volume was 100 μL. The reaction rates were measured on a Gemini plate reader with an excitation wavelength of 488 nm and a emission of 530 nm. Readings were taken every 20 seconds for 10 min with agitation between each reading. The slope of the linear portion of the readout was used to calculate the rate of the reaction.
# The exemplified examples disclosed in the present invention were tested in the EL assay described above and found having EL inhibitory activity. A range of EL IC50 values of ≦10 μM (10000 nM) was observed.
row,IC50,SMILES
1,0.703 µM,"Nc1c(C(=O)NCc2ccc(Oc3ccccc3)cc2)[nH]c(=O)[nH]c1=O [Example 32, 5-amino-2,6-dioxo-N-(4-phenoxybenzyl)-1,2,3,6-tetrahydropyrimidine-4-carboxamide]"
2,0.08 µM,"C[C@H](CCc1cccc(C(F)(F)F)c1)NC(=O)c1[nH]c(=O)[nH]c(=O)c1N [Example 1, (R)-5-Amino-2,6-dioxo-N-(4-(3-(trifluoromethyl)phenyl)butan-2-yl)-1,2,3,6-tetrahydropyrimidine-4-carboxamide]"
3,9.93 µM,"CC(CNC(=O)c1[nH]c(=O)[nH]c(=O)c1N)Oc1ccc(F)cc1 (stereo not drawn) [Example 15, 5-amino-N-(2-(4-fluorophenoxy)propyl)-2,6-dioxo-1,2,3,6-tetrahydropyrimidine-4-carboxamide]"
4,1.39 µM,"C[C@H](COc1ccc(Cl)cc1F)NC(=O)c1[nH]c(=O)[nH]c(=O)c1N [Example 72, (R)-5-amino-N-(1-(4-chloro-2-fluoro-phenoxy)propan-2-yl)-2,6-dioxo-1,2,3,6-tetrahydropyrimidine-4-carboxamide]"
5,0.612 µM,"Nc1c(C(=O)NCc2c[nH]nc2-c2ccccc2)[nH]c(=O)[nH]c1=O [Example 30, 5-amino-2,6-dioxo-N-((3-phenyl-1H-pyrazol-4-yl)methyl)-1,2,3,6-tetrahydropyrimidine-4-carboxamide]"
6,5.4 µM,"C[C@H](COc1ccc2c(c1)NC(=O)CC2)NC(=O)c1[nH]c(=O)[nH]c(=O)c1N [Example 120, (R)-5-amino-2,6-dioxo-N-(1-(2-oxo-1,2,3,4-tetrahydroquinolin-7-yloxy)propan-2-yl)-1,2,3,6-tetrahydropyrimidine-4-carboxamide]"
7,0.266 µM,"CC(C)(C)OC(=O)N1CCN(c2cccc(CNC(=O)c3[nH]c(=O)[nH]c(=O)c3N)c2)CC1 [Example 33, tert-butyl 4-(3-((5-amino-2,6-dioxo-1,2,3,6-tetrahydro-pyrimidine-4-carboxamido)methyl)phenyl)piperazine-1-carboxylate]"
8,0.883 µM,"C[C@@H](NC(=O)c1[nH]c(=O)[nH]c(=O)c1N)c1cccc(-c2cnn(Cc3cccc(C(N)=O)c3)c2)c1 [Example 141, (R)-5-amino-N-(1-(3-(1-(3-carbamoylbenzyl)-1H-pyrazol-4-yl)phenyl)ethyl)-2,6-dioxo-1,2,3,6-tetrahydro-pyrimidine-4-carboxamide]"
9,0.559 µM,"C[C@H](COc1ccc(S(C)(=O)=O)cc1)NC(=O)c1[nH]c(=O)[nH]c(=O)c1N [Example 103, (R)-5-amino-N-(1-(4-(methylsulfonyl)phenoxy)pro-pan-2-yl)-2,6-dioxo-1,2,3,6-tetrahydropyrimidine-4-carboxamide]"
